Results published in PMC10764104, “Discovery of Molecular Glue Degraders via Isogenic Morphological Profiling” (ACS Chemical Biology, 2023).
pEC50: −log10 of the molar value.

Target: T1, recombinant DDB1-CRBN (Homo sapiens, UniProt Q96SW2)
T1 construct: His; made in house; host or cells: High Five insect cells (baculovirus made and propagated in SF9 cells)
Assay: Fluorescence polarization-based competition assay for CRBN binding
Details: 200 nM CRBN-DDB1, 20 nM pomalidomide-fluorescein tracer 16, triplicates; read-out: FP_CRBN_binding: CRBN binding affinity, EC50
Protocol: Prior to screening the compound library in the isogenic CPA, we assessed their CRBN binding affinities using a fluorescence-polarization-based competition assay with recombinant DDB1-CRBN and the fluorescent tracer 16 (Figure S2). […] We also assessed the cytotoxicity of the CRBN binders in RKO wild-type (WT) cells to determine the appropriate treatment concentration. […]
Fluorescence Polarization‐based competition assay
Fluorescence Polarization assays were performed in 384‐well, Low Volume, Black, Round Bottom, Polystyrene Nonbinding surface Microplates (Corning, #4514). The test compounds were incubated with 200 nM CRBN‐DDB1 and 20 nM Pomalidomide‐fluorescein tracer 16 in 50 mM Tris‐HCl pH 7.5, 200 mM NaCl, 1 mM DTT, 0.02% Triton X‐ 100, and 0.1 µg/µL Bovine Serum Albumin (Sigma Aldrich, #A7030) in a total volume of 25 µL. Fluorescence polarization values were determined with a PerkinElmer Envision reader with FITC FP dual mirror and FITC FP 480 excitation filter and FITC FP 535 emission filters. Fluorescence polarization values of a 10x serial dilution (10 nM to 100 µM) of the test compounds were determined in triplicates. EC50 values were calculated with GraphPad Prism software (version 10.0.2) with a non‐linear fit function (4PL sigmoidal curve fit) adjusting the bottom constrain to the FP value of free tracer. […]

SMILES	pEC50
CC1c2cc(F)ccc2CCN1S(=O)(=O)Oc1ccc(Nc2ccc3c(c2)C(=O)N(C2CCC(=O)NC2=O)C3=O)cc1 (stereo not shown) [FL2-17]	5.89
CN(C)c1ncc(CN(C)S(=O)(=O)Oc2ccc(Nc3ccc4c(c3)C(=O)N(C3CCC(=O)NC3=O)C4=O)cc2)cn1 (stereo not shown) [FL2-18]	6.06
CC1c2cccn2CCN1S(=O)(=O)Oc1ccc(Nc2ccc3c(c2)C(=O)N(C2CCC(=O)NC2=O)C3=O)cc1 (stereo not shown) [FL2-19]	5.98
CN(Cc1ccc2c(c1)OCO2)S(=O)(=O)Oc1ccc(Nc2ccc3c(c2)C(=O)N(C2CCC(=O)NC2=O)C3=O)cc1 (stereo not shown) [FL2-20]	5.58
CN(C1CC1)S(=O)(=O)Oc1ccc(Nc2ccc3c(c2)C(=O)N(C2CCC(=O)NC2=O)C3=O)cc1 (stereo not shown) [FL2-21]	5.94
CC(O)CN(C)S(=O)(=O)Oc1cccc(Nc2cccc3c2C(=O)N(C2CCC(=O)NC2=O)C3=O)c1 (stereo not shown) [FL3-1]	6.52
O=C1CCC(N2C(=O)c3cccc(Nc4cccc(OS(=O)(=O)N5CC(CCO)C5)c4)c3C2=O)C(=O)N1 (stereo not shown) [FL3-2]	6.39
CC(C)(O)C1CCN(S(=O)(=O)Oc2cccc(Nc3cccc4c3C(=O)N(C3CCC(=O)NC3=O)C4=O)c2)C1 (stereo not shown) [FL3-4]	6.35
O=C1CCC(N2C(=O)c3cccc(Nc4cccc(OS(=O)(=O)N5CCOCC5)c4)c3C2=O)C(=O)N1 (stereo not shown) [FL3-5]	6.67
C[C@@H]1C[C@H](C)CN(S(=O)(=O)Oc2cccc(Nc3cccc4c3C(=O)N(C3CCC(=O)NC3=O)C4=O)c2)C1 (stereo partly shown) [FL3-6]	5.56
CC1(C)CN(S(=O)(=O)Oc2cccc(Nc3cccc4c3C(=O)N(C3CCC(=O)NC3=O)C4=O)c2)CCS1(=O)=O (stereo not shown) [FL3-7]	6.46
CC1(C)CN(S(=O)(=O)Oc2cccc(Nc3cccc4c3C(=O)N(C3CCC(=O)NC3=O)C4=O)c2)CC2(CCOC2)O1 (stereo not shown) [FL3-8]	6.04
O=C1CCC(N2C(=O)c3cccc(Nc4cccc(OS(=O)(=O)N5CC6(CNC(=O)N6)C5)c4)c3C2=O)C(=O)N1 (stereo not shown) [FL3-9]	6.48
O=C1CCC(N2C(=O)c3cccc(Nc4cccc(OS(=O)(=O)N5C[C@@H](F)[C@H](F)C5)c4)c3C2=O)C(=O)N1 (stereo partly shown) [FL3-10]	6.24
CN(Cc1ncnn1C)S(=O)(=O)Oc1cccc(Nc2cccc3c2C(=O)N(C2CCC(=O)NC2=O)C3=O)c1 (stereo not shown) [FL3-11]	6.35
O=C1CCC(N2C(=O)c3cccc(Nc4cccc(OS(=O)(=O)N5CCC(c6ccco6)C5)c4)c3C2=O)C(=O)N1 (stereo not shown) [FL3-12]	5.57

SMILES	pEC50
Cc1cn2c(n1)CN(S(=O)(=O)Oc1cccc(Nc3cccc4c3C(=O)N(C3CCC(=O)NC3=O)C4=O)c1)CC2 (stereo not shown) [FL3-13]	6.33
CN(Cc1ncc(C2CC2)o1)S(=O)(=O)Oc1cccc(Nc2cccc3c2C(=O)N(C2CCC(=O)NC2=O)C3=O)c1 (stereo not shown) [FL3-14]	6.05
CN(Cc1ccc2[nH]nnc2c1)S(=O)(=O)Oc1cccc(Nc2cccc3c2C(=O)N(C2CCC(=O)NC2=O)C3=O)c1 (stereo not shown) [FL3-15]	6.00
O=C1CCC(N2C(=O)c3cccc(Nc4cccc(OS(=O)(=O)N5CCC(c6ccncc6)CC5)c4)c3C2=O)C(=O)N1 (stereo not shown) [FL3-16]	6.58
CC1c2cc(F)ccc2CCN1S(=O)(=O)Oc1cccc(Nc2cccc3c2C(=O)N(C2CCC(=O)NC2=O)C3=O)c1 (stereo not shown) [FL3-17]	5.88
CN(C)c1ncc(CN(C)S(=O)(=O)Oc2cccc(Nc3cccc4c3C(=O)N(C3CCC(=O)NC3=O)C4=O)c2)cn1 (stereo not shown) [FL3-18]	6.17
CC1c2cccn2CCN1S(=O)(=O)Oc1cccc(Nc2cccc3c2C(=O)N(C2CCC(=O)NC2=O)C3=O)c1 (stereo not shown) [FL3-19]	6.13
CN(Cc1ccc2c(c1)OCO2)S(=O)(=O)Oc1cccc(Nc2cccc3c2C(=O)N(C2CCC(=O)NC2=O)C3=O)c1 (stereo not shown) [FL3-20]	5.80
CN(C1CC1)S(=O)(=O)Oc1cccc(Nc2cccc3c2C(=O)N(C2CCC(=O)NC2=O)C3=O)c1 (stereo not shown) [FL3-21]	5.99
CC(O)CN(C)S(=O)(=O)Oc1ccc(Nc2cccc3c2C(=O)N(C2CCC(=O)NC2=O)C3=O)cc1 (stereo not shown) [FL4-1]	6.43
O=C1CCC(N2C(=O)c3cccc(Nc4ccc(OS(=O)(=O)N5CC(CCO)C5)cc4)c3C2=O)C(=O)N1 (stereo not shown) [FL4-2]	6.25
CC(C)(O)C1CCN(S(=O)(=O)Oc2ccc(Nc3cccc4c3C(=O)N(C3CCC(=O)NC3=O)C4=O)cc2)C1 (stereo not shown) [FL4-4]	6.16
O=C1CCC(N2C(=O)c3cccc(Nc4ccc(OS(=O)(=O)N5CCOCC5)cc4)c3C2=O)C(=O)N1 (stereo not shown) [FL4-5]	6.19
C[C@@H]1C[C@H](C)CN(S(=O)(=O)Oc2ccc(Nc3cccc4c3C(=O)N(C3CCC(=O)NC3=O)C4=O)cc2)C1 (stereo partly shown) [FL4-6]	5.44
CC1(C)CN(S(=O)(=O)Oc2ccc(Nc3cccc4c3C(=O)N(C3CCC(=O)NC3=O)C4=O)cc2)CCS1(=O)=O (stereo not shown) [FL4-7]	6.13
